Experimental findings from US10517849B2, “LSD1 inhibitors and medical uses thereof” (Constellation Pharmaceuticals, Inc., priority 2016, dated 2019) are described below.

Counter-ions that a name gives are not always drawn.

For assay [1], the system named is LY-96 mRNA induction in MV4-11 cells. Briefly: LSD1 LY96 Quantigene Assay. The format is cell-based. To be noted: Homo sapiens, 16 h, Quantigene 2.0. The method, then: MV4-11 cells were cultured at a density of 4×10^4 cells per well in a 96-well plates and treated with various doses inhibitor starting from 10 μM up to 0.0005 μM for 16 h. The LY-96 mRNA induction was quantified using the Quantigene 2.0 system (Affymetrix). The cells were lysed with Lysis Mixture containing Proteinase K. The working reagent for capturing the RNA was prepared according to the steps detailed in “Capturing Target RNA from Cultured Cell or Blood Lysates” in the Quantigene handbook. The subsequent hybridization with LY-96 probe, signal amplification and detection steps were performed as described in the manual. The chemiluminescence was read using Envision (PerkinElmer) and Abase (IDBS software) was used to plot the dose response curves and calculate IC50.

Assay [2] has as its system Kasumi-1. Briefly: Kasumi-1 GI50 Assay. The class given is cell-based. The settings on record: Homo sapiens, 288 h; Kasumi-1 cells, 12 days, Cell Titer-Glo viability. How it is done: Cells were plated at 5,000 cells per well in 96 well tissue culture dishes containing tool compounds arrayed in a 10-point dose curve, ranging from […] with 4-fold dilutions, and split every fourth day at a fixed ratio to re-establish 5,000 cells/well density for DMSO-treated controls. Cell treatments were carried out for a total of 12 days. At each 4-day split, the viable cell numbers were determined using the Cell Titer-Glo luminescent cell viability assay (Promega, Madison, Wis. USA) using an EnVision® Multilabel Plate Reader (Perkin Elmer, Waltham, Mass. USA). GraphPad Prism 6 (GraphPad Software, Inc., La Jolla, Calif. USA) was used for curve fitting and determination of GI50 values.
Background: Cellular ATP, detected with luciferase, serves as a proxy for viable cell number.

As a reminder, the EC50 is the concentration giving half of the maximal effect. Low readings indicate greater potency, high ones weaker potency. Broadly, the GI50 is the concentration giving 50% growth inhibition.

`CC/C(=C\c1ccccc1)[C@@H]1C[C@H]1NC1CC2(C1)CN(CCNC(C)=O)C2` [Compound 5, N-(2-(6-(((1R,2S)-2-((E)-1-phenylbut-1-en-2-yl)cyclopropyl)amino)-2-azaspiro[3.3]heptan-2-yl)ethyl)acetamide bis(2,2,2-trifluoroacetate)]: the EC50 in assay [1] was under 100 nM. In assay [2], the GI50 is under 100 nM.

Take `CC/C(=C\c1ccccc1)[C@@H]1C[C@H]1NC1CC2(C1)CN(CCNS(=O)(=O)C1CC1)C2` [Compound 6, N-(2-(6-(((1R,2S)-2-((E)-1-phenylbut-1-en-2-yl)cyclopropyl)amino)-2-azaspiro[3.3]heptan-2-yl)ethyl)cyclopropanesulfonamide bis(2,2,2-trifluoroacetate)]: the EC50 in assay [1] was under 100 nM. In addition, the GI50 in assay [2] was under 100 nM.

Regarding `CC/C(=C\c1ccccc1)[C@@H]1C[C@H]1NC1CC2(C1)CN(CCNS(=O)(=O)CC)C2` [Compound 7, N-(2-(6-(((1R,2S)-2-((E)-1-phenylbut-1-en-2-yl)cyclopropyl)amino)-2-azaspiro[3.3]heptan-2-yl)ethyl)ethanesulfonamide bis(2,2,2-trifluoroacetate)], the EC50 in assay [1] is under 100 nM. Further, the concentration for 50% growth inhibition (GI50) in assay [2] is under 100 nM.

Turning to `CC/C(=C\c1ccccc1)[C@@H]1C[C@H]1NC1CC2(C1)CN(CCNS(=O)(=O)C(C)C)C2` [Compound 8, N-(2-(6-(((1R,2S)-2-((E)-1-phenylbut-1-en-2-yl)cyclopropyl)amino)-2-azaspiro[3.3]heptan-2-yl)ethyl)propane-2-sulfonamide bis(2,2,2-trifluoroacetate)], the EC50 in assay [1] was under 100 nM. Further, the GI50 in assay [2] was under 100 nM.

In the case of `CC/C(=C\c1ccccc1)[C@@H]1C[C@H]1NC1CC2(C1)CN(CCNS(=O)(=O)CCOC)C2` [Compound 9, 2-methoxy-N-(2-(6-(((1R,2S)-2-((E)-1-phenylbut-1-en-2-yl)cyclopropyl)amino)-2-azaspiro[3.3]heptan-2-yl)ethyl)ethanesulfonamide bis(2,2,2-trifluoroacetate)], in assay [1], the EC50 was under 100 nM. For the same molecule, in assay [2], the GI50 is under 100 nM.

Take `CC/C(=C\c1ccccc1)[C@@H]1C[C@H]1NC1CC2(CCN(C(CO)CO)CC2)C1` [Compound 10, 2-(2-(((1R,2S)-2-((E)-1-phenylbut-1-en-2-yl)cyclopropyl)amino)-7-azaspiro[3.5]nonan-7-yl)propane-1,3-diol bis(2,2,2-trifluoroacetate)]: in assay [1], the EC50 is under 100 nM. Moreover, the GI50 in assay [2] was under 100 nM.

Molecule `CC/C(=C\c1ccccc1)[C@@H]1C[C@H]1NC1CC2(C1)CN(C(C)(C)C(N)=O)C2` [Compound 14, 2-methyl-2-(6-(((1R,2S)-2-((E)-1-phenylbut-1-en-2-yl)cyclopropyl)amino)-2-azaspiro[3.3]heptan-2-yl)propanamide bis(2,2,2-trifluoroacetate)] had an EC50 in assay [1] of under 100 nM. Moreover, in assay [2], the GI50 is under 100 nM.

The molecule `CC/C(=C\c1ccccc1)[C@@H]1C[C@H]1NC1CC2(C1)CN(CC(C)(C)NS(C)(=O)=O)C2` [Compound 15, N-(2-methyl-1-(6-(((1R,2S)-2-((E)-1-phenylbut-1-en-2-yl)cyclopropyl)amino)-2-azaspiro[3.3]heptan-2-yl)propan-2-yl)methanesulfonamide bis(2,2,2-trifluoroacetate)] gave an EC50 in assay [1] of under 100 nM. Further, the GI50 in assay [2] was under 100 nM.

On to `CC/C(=C\c1ccccc1)[C@@H]1C[C@H]1NC1CC2(CCN(C[C@@H](C)O)CC2)C1` [Compound 16, (R)-1-(2-(((1R,2S)-2-((E)-1-phenylbut-1-en-2-yl)cyclopropyl)amino)-7-azaspiro[3.5]nonan-7-yl)propan-2-ol dihydrochloride], for which the EC50 in assay [1] was under 100 nM. In addition, the GI50 in assay [2] was under 100 nM.

In assay [1], `CC/C(=C\c1ccccc1)[C@@H]1C[C@H]1NC1CC2(CCN(CC(C)(C)O)CC2)C1` [Compound 18, 2-methyl-1-(2-(((1R,2S)-2-((E)-1-phenylbut-1-en-2-yl)cyclopropyl)amino)-7-azaspiro[3.5]nonan-7-yl)propan-2-ol dihydrochloride] registered an EC50 of under 100 nM. Further, the GI50 in assay [2] was under 100 nM.
